From patent US8871753B2, “Macrocyclic compounds and their use as kinase inhibitors” (Incyte Corporation, priority 2008, dated 2014) come the findings set out here.

Structures can show the parent of a compound that is named as a salt. Where two headings read alike, the source gives them in different places. Where only a bound is given, the exact number is not on record here.

Holding throughout (format): biochemical
Assay [1] deals with T1, human JAK1 (a.a. 837-1142) (Homo sapiens, UniProt P23458).
T1 construct: human JAK1 (a.a. 837-1142); His tag (N); made in house; host or cells: insect cells (baculovirus)
In words: In vitro JAK kinase assay (HTRF, phosphorylation of a biotinylated peptide), JAK1. The settings on record: read-out: JAK1 IC50. The gist of the method: (§1)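 Phosphorylation of a biotinylated peptide by the JAK kinase domain, detected by HTRF with Eu-Py20 and SA-APC. ATP was 90 μM for JAK1, 30 μM for JAK2 and 3 μM for JAK3. Reactions ran 1 h at room temperature and were stopped with EDTA, followed by 40 min antibody binding.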
A general note: In TR-FRET formats the signal depends on donor and acceptor labels being close together.

The target of assay [2] is T2, human JAK2 (a.a. 828-1132) (Homo sapiens, UniProt O60674).
T2 construct: JAK2 (a.a. 828-1132); His tag (N); made in house; host or cells: insect cells (baculovirus)
In words: In vitro JAK kinase assay (HTRF, phosphorylation of a biotinylated peptide), JAK2. The gist of the method: as §1

The target of assay [3] is T3, human JAK3 (a.a. 781-1124) (Homo sapiens, UniProt P52333).
T3 construct: JAK3 (a.a. 781-1124); His tag (N); made in house; host or cells: insect cells (baculovirus)
The assay is described as follows: In vitro JAK kinase assay (HTRF, phosphorylation of a biotinylated peptide), JAK3. The method in brief:
as §1

Another assay has as its target TYK2 (Homo sapiens, UniProt P29597). In words: TYK2 kinase inhibition (Table A1).

T1 sequence (P23458 849-1154): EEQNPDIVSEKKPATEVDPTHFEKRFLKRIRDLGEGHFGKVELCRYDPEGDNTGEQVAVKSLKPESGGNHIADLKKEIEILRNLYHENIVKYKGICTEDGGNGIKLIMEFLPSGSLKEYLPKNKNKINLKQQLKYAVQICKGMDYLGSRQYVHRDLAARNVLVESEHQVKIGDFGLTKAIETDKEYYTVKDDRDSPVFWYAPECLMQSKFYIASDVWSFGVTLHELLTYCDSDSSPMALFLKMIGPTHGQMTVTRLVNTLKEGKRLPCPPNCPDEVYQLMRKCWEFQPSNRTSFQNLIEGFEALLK
T2 sequence (O60674 828-1132): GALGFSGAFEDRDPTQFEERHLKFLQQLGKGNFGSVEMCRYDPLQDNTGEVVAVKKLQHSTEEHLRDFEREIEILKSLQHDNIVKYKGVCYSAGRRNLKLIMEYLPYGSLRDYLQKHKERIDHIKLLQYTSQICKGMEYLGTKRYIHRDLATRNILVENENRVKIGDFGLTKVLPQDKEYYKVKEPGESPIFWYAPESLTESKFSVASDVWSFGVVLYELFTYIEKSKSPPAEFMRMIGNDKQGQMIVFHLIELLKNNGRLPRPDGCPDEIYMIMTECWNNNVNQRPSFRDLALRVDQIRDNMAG
T3 sequence (P52333 781-1124): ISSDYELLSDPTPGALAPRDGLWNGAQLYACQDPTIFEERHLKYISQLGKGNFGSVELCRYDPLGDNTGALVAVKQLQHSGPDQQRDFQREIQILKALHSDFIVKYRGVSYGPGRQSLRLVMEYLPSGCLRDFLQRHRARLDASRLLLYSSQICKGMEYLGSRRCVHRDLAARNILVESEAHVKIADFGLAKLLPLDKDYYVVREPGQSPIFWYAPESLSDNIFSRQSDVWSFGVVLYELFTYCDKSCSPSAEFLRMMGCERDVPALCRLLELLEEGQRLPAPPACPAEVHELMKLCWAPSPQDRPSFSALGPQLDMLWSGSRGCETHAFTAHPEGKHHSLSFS
Chain of TYK2 (P29597 whole entry): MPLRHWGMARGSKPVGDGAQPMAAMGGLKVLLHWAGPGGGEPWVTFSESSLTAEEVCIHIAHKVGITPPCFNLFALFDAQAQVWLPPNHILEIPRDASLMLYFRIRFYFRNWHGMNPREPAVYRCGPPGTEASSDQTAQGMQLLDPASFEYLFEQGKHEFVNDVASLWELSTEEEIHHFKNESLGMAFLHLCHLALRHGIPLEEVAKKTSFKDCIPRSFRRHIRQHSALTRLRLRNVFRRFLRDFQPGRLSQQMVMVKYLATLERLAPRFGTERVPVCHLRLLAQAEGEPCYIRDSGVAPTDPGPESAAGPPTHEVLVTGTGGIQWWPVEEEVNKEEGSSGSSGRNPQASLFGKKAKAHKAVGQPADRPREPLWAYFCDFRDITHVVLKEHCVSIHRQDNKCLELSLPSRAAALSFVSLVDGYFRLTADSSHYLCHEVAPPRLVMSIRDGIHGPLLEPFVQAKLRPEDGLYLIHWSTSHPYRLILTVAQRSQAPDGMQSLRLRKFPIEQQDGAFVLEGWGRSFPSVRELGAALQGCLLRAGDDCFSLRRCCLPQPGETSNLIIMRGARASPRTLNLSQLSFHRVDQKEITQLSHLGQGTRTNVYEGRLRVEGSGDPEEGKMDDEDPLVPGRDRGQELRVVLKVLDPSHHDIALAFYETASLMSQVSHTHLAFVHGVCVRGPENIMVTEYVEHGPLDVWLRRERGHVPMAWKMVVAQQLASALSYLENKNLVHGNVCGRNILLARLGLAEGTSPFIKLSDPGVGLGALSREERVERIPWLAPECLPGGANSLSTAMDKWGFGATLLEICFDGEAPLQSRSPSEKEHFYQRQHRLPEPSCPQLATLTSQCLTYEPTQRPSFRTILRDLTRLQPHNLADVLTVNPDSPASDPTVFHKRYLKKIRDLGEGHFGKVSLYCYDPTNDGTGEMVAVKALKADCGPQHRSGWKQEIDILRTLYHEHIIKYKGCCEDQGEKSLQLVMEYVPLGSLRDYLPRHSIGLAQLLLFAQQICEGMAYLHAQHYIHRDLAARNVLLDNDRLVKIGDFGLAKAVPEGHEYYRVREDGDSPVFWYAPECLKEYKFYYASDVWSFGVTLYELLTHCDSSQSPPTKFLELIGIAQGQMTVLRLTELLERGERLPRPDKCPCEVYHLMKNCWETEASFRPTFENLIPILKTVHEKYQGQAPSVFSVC

Consider `N#Cc1ccccc1S(=O)(=O)N1CCC(COc2ccc3cc2CCc2cncc(c2)Nc2ncc(Cl)c(n2)N3)C1` (centres unmarked) [Example C57, 2-{[3-({[6-Chloro-2,4,8,18,22-pentaazatetracyclo[14.3.1.1(3,7).1(9,13)]docosa-1(20),3(22),4,6,9(21),10,12,16,18-nonaen-12-yl]oxy}methyl)pyrrolidin-1-yl]sulfonyl}benzonitrile bis(trifluoroacetate)], for which the IC50 in assay [1] is more than 400 nM; in assay [2], 288 nM; in assay [3], more than 400 nM; against TYK2 it was more than 400 nM.
On to `O=C(COc1ccc2cc1CCc1cncc(c1)Nc1ncc(Cl)c(n1)N2)N1CCN(c2cc(Cl)cc(Cl)n2)CC1` [Example D247, 6-Chloro-12-{2-[4-(4,6-dichloropyridin-2-yl)piperazin-1-yl]-2-oxoethoxy}-2,4,8,18,22-pentaazatetracyclo[14.3.1.1(3,7).1(9,13)]docosa-1(20),3(22),4,6,9(21),10,12,16,18-nonaene tris(trifluoroacetate)], for which the IC50 is 82 nM in assay [1] (Table D1), more than 400 nM in assay [2] (Table D1), more than 400 nM in assay [3] (Table D1) and more than 400 nM against TYK2 (Table D1).
In the case of `N#Cc1ccccc1NC(=O)N1CCC(CCOc2ccc3cc2CCc2cncc(c2)Nc2ncc(Cl)c(n2)N3)CC1` [Example D173, 4-(2-{[6-Chloro-2,4,8,18,22-pentaazatetracyclo[14.3.1.1(3,7).1(9,13)]docosa-1(20),3(22),4,6,9(21),10,12,16,18-nonaen-12-yl]oxy}ethyl)-N-(2-cyanophenyl)piperidine-1-carboxamide bis(trifluoroacetate)], the IC50 in assay [1] (Table D1) is 100 nM; in assay [2] (Table D1) it was more than 400 nM; in assay [3] (Table D1) it was more than 400 nM; on TYK2 (Table D1) it was more than 400 nM.
For `CC1(C)Cc2cccc(NC(=O)N3CCC(CCOc4ccc5cc4CCc4cncc(c4)Nc4ncc(Cl)c(n4)N5)CC3)c2O1` [Example D175, 4-(2-{[6-Chloro-2,4,8,18,22-pentaazatetracyclo[14.3.1.1(3,7).1(9,13)]docosa-1(20),3(22),4,6,9(21),10,12,16,18-nonaen-12-yl]oxy}ethyl)-N-(2,2-dimethyl-2,3-dihydro-1-benzofuran-7-yl)piperidine-1-carboxamide bis(trifluoroacetate)], the IC50 in assay [1] (Table D1) is 150 nM; in assay [2] (Table D1) it was more than 400 nM; in assay [3] (Table D1), more than 400 nM; on TYK2 (Table D1) it was more than 400 nM.
On to `O=C(CC1CN(c2nc3ccccc3s2)C1)Nc1ccc2cc1CCc1cncc(c1)Nc1ncc(Cl)c(n1)N2` [Example D138, 2-[1-(1,3-Benzothiazol-2-yl)azetidin-3-yl]-N-[6-chloro-2,4,8,18,22-pentaazatetracyclo[14.3.1.1(3,7).1(9,13)]docosa-1(20),3(22),4,6,9(21),10,12,16,18-nonaen-12-yl]acetamide tris(trifluoroacetate)], for which the IC50 in assay [1] (Table D1) is 12 nM; in assay [2] (Table D1), 96 nM; in assay [3] (Table D1), more than 1000 nM; against TYK2 (Table D1) it was 500 nM.
`Cc1nc(CC(=O)Nc2ccc3cc2CCc2cccc(c2)Nc2ncc(Cl)c(n2)N3)cs1` [Example C38, N-[6-Chloro-2,4,8,22-tetraazatetracyclo[14.3.1.1(3,7).1(9,13)]docosa-1(20),3(22),4,6,9(21),10,12,16,18-nonaen-12-yl]-2-(2-methyl-1,3-thiazol-4-yl)acetamide trifluoroacetate]: the IC50 is 37 nM in assay [1], 47 nM in assay [2], 1070 nM in assay [3] and 39 nM against TYK2.
For `O=C(CC1CN(C(=O)c2nc[nH]n2)C1)Nc1ccc2cc1CCc1cncc(c1)Nc1ncc(Cl)c(n1)N2` [Example D147, N-[6-Chloro-2,4,8,18,22-pentaazatetracyclo[14.3.1.1(3,7).1(9,13)]docosa-1(20),3(22),4,6,9(21),10,12,16,18-nonaen-12-yl]-2-[1-(1H-1,2,4-triazol-3-ylcarbonyl)azetidin-3-yl]acetamide bis(trifluoroacetate)], the IC50 was 26 nM in assay [1] (Table D1), 85 nM in assay [2] (Table D1), more than 1000 nM in assay [3] (Table D1) and 401 nM on TYK2 (Table D1).
As to `Cc1noc(C)c1NC(=O)N1CCC(CCOc2ccc3cc2CCc2cncc(c2)Nc2ncc(Cl)c(n2)N3)CC1` [Example D171, 4-(2-{[6-Chloro-2,4,8,18,22-pentaazatetracyclo[14.3.1.1(3,7).1(9,13)]docosa-1(20),3(22),4,6,9(21),10,12,16,18-nonaen-12-yl]oxy}ethyl)-N-(3,5-dimethylisoxazol-4-yl)piperidine-1-carboxamide bis(trifluoroacetate)], the IC50 in assay [1] (Table D1) was 117 nM; in assay [2] (Table D1), 244 nM; in assay [3] (Table D1), more than 400 nM; at TYK2 (Table D1) it was more than 400 nM.
With `NC1CCN(c2ccc3cc2CCc2cccc(c2)Nc2ncc(Cl)c(n2)N3)C1` (centres unmarked) [Example D88, 1-[6-Chloro-2,4,8,22-tetraazatetracyclo[14.3.1.1(3,7).1(9,13)]docosa-1(20),3(22),4,6,9(21),10,12,16,18-nonaen-12-yl]pyrrolidin-3-amine tris(trifluoroacetate)], the IC50 in assay [1] (Table D1) stood at 19 nM; in assay [2] (Table D1), 7.7 nM; in assay [3] (Table D1), 15 nM; on TYK2 (Table D1), 14 nM.
As for `Clc1cnc2nc1Nc1cccc(c1)OCCc1cc(CN3CCOCC3)cc(c1)N2` [Example D189, 6-Chloro-19-(morpholin-4-ylmethyl)-14-oxa-2,4,8,23-tetraazatetracyclo[15.3.1.1(3,7).1(9,13)]tricosa-1(21),3(23),4,6,9(22),10,12,17,19-nonaene bis(trifluoroacetate)], the IC50 in assay [1] (Table D1) is 7.6 nM; in assay [2] (Table D1), 0.5 nM; in assay [3] (Table D1), 7.3 nM; against TYK2 (Table D1) it was 5.2 nM.
The matching figures for `O=C(Nc1ccc(C(F)(F)F)cc1)N1CCN(c2ccc3cc2CCc2cccc(c2)Nc2ncc(Cl)c(n2)N3)CC1` [Example D90, 4-[6-Chloro-2,4,8,22-tetraazatetracyclo[14.3.1.1(3,7).1(9,13)]docosa-1(20),3(22),4,6,9(21),10,12,16,18-nonaen-12-yl]-N-[4-(trifluoromethyl)phenyl]piperazine-1-carboxamide bis(trifluoroacetate)]: 127 nM, 23 nM, 108 nM and 70 nM.
The matching figures for `O=C(C[C@@H]1CCCN(C(=O)Nc2ccccc2)C1)Nc1ccc2cc1CCc1cccc(c1)Nc1ncc(Cl)c(n1)N2` [Example D196, (3S)-3-(2-{[6-Chloro-2,4,8,22-tetraazatetracyclo[14.3.1.1(3,7).1(9,13)]docosa-1(20),3(22),4,6,9(21),10,12,16,18-nonaen-12-yl]amino}-2-oxoethyl)-N-phenylpiperidine-1-carboxamide trifluoroacetate]: 11 nM, 6.4 nM, 57 nM and 31 nM.
As for `O=C(Cc1csc2ccccc12)Nc1ccc2cc1CCc1cccc(c1)Nc1ncc(Cl)c(n1)N2` [Example C35, 2-(1-Benzothien-3-yl)-N-[6-chloro-2,4,8,22-tetraazatetracyclo[14.3.1.1(3,7).1(9,13)]docosa-1(20),3(22),4,6,9(21),10,12,16,18-nonaen-12-yl]acetamide trifluoroacetate], the IC50 in assay [1] is 232 nM; in assay [2] it was 203 nM; in assay [3] it was more than 10000 nM; against TYK2, 549 nM.
For the compound `Cc1ccc(C(=O)N2Cc3cccc(c3)Nc3ncc(Cl)c(n3)Nc3cccc2c3)cc1` [Example C24, 6-Chloro-14-(4-methylbenzoyl)-2,4,8,14,22-pentaazatetracyclo[14.3.1.1(3,7).1(9,13)]docosa-1(20),3(22),4,6,9(21),10,12,16,18-nonaene], the IC50 in assay [1] was found to be 95 nM; in assay [2] it was 154 nM; in assay [3] it was 1200 nM; at TYK2 it was 1030 nM.
With `O=C(COc1ccc2cc1CCc1cncc(c1)Nc1ncc(Cl)c(n1)N2)N1CCN(S(=O)(=O)c2ccccc2F)CC1` [Example D253, 6-Chloro-12-(2-{4-[(2-fluorophenyl)sulfonyl]piperazin-1-yl}-2-oxoethoxy)-2,4,8,18,22-pentaazatetracyclo[14.3.1.1(3,7).1(9,13)]docosa-1(20),3(22),4,6,9(21),10,12,16,18-nonaene bis(trifluoroacetate)], the IC50 in assay [1] (Table D1) is 35 nM; in assay [2] (Table D1), 67 nM; in assay [3] (Table D1), more than 400 nM; on TYK2 (Table D1), more than 400 nM.
Turning to `O=C(CC1CN(C(=O)c2nccs2)C1)Nc1ccc2cc1CCc1cncc(c1)Nc1ncc(Cl)c(n1)N2` [Example D145, N-[6-Chloro-2,4,8,18,22-pentaazatetracyclo[14.3.1.1(3,7).1(9,13)]docosa-1(20),3(22),4,6,9(21),10,12,16,18-nonaen-12-yl]-2-[1-(1,3-thiazol-2-ylcarbonyl)azetidin-3-yl]acetamide bis(trifluoroacetate)], the IC50 in assay [1] (Table D1) is 31 nM; in assay [2] (Table D1), 123 nM; in assay [3] (Table D1) it was more than 1000 nM; against TYK2 (Table D1), 775 nM.
As for `N#CCC(=O)N1CCN(C(=O)COc2ccc3cc2CCc2cncc(c2)Nc2ncc(Cl)c(n2)N3)CC1` [Example D269, 3-[4-({[6-Chloro-2,4,8,18,22-pentaazatetracyclo[14.3.1.1(3,7).1(9,13)]docosa-1(20),3(22),4,6,9(21),10,12,16,18-nonaen-12-yl]oxy}acetyl)piperazin-1-yl]-3-oxopropanenitrile bis(trifluoroacetate)], the IC50 is 29 nM in assay [1] (Table D1), 226 nM in assay [2] (Table D1), more than 400 nM in assay [3] (Table D1) and more than 400 nM at TYK2 (Table D1).

What is called IC50 is the midpoint of a concentration-inhibition curve.
